Activity calls are given as the source filed them. The calls are words filed in the database; no cut-off is given here.

In assay [1] the test system is Human betaherpesvirus 5. In words: Compound was tested for cytotoxicity against human cytomegalo virus at 100 uM; NA - no activity. In kind it is functional, organism-based.
For assay [2], the system named is Human betaherpesvirus 5. In words: Compound was tested for complete inhibition of growth rate against human cytomegalo virus. In kind it is functional.

Regarding `Nc1nncc2c1ccn2C1O[C@H](CO)[C@@H](O)[C@H]1O` (some centres not stated), the outcome in assay [1] was inactive. Besides, the Inhibition in assay [2] stood at 0.043 µM.

The values are drawn from ChEMBL document CHEMBL1125852, “Synthesis of 4-Amino-1-(-D-ribofuranosyl)pyrrolo[2,3-d]pyridazine; an entry into a novel series of adenosine analogs” (1991).
